# Test results reported in US9783500B2, “2-aminoquinoline-based compounds for potent and selective neuronal nitric oxide synthase inhibition” (priority 2014, dated 2017).
# Where a name gives a salt, the structure may show the parent alone.
# Target: rat nNOS (Rattus norvegicus (Rat), UniProt P29476)
# Conditions: Table 1; for Selectivity n/e / Selectivity n/i: ratio of Ki values; for Selectivity n/e: bovine eNOS/rat nNOS; for Selectivity n/i: murine iNOS/rat nNOS
Selectivity n/e,Selectivity n/i,Compound,"Ki (read-out: Ki nNOS, purified rat nNOS, Ki calculated from IC50) [µM]"
30,97,"Cl.Cl.Nc1ccc2ccc(CCNCc3cccc(F)c3)cc2n1 [6 (Ex. 12), 7-[2-(3-Fluorobenzylamino)ethyl]quinolin-2-amine Dihydrochloride]",
62,538,"Nc1ccc2ccc(CNCCCc3cccc(F)c3)cc2n1 [9 (Ex. 9), 7-{2-[3-(3-Fluorophenyl(propylamino)methyl]}quinolin-2-amine Dihydrochloride]",

# Continued, compound first:
Compound,Selectivity n/e,Selectivity n/i,"Ki (read-out: Ki nNOS, purified rat nNOS, Ki calculated from IC50) [µM]"
"Cl.Cl.Nc1ccc2ccc(CNCCc3cccc(F)c3)cc2n1 [5 (Ex. 8), 7-[(3-Fluorophenethylamino)methyl]quinolin-2-amine Dihydrochloride]",6.2,,
"Nc1ccc2cc(CCNCCCc3cccc(F)c3)ccc2n1 [13 (Ex. 30), 6-{2-[3-(3-Fluorophenyl(propylamino)ethyl]}quinolin-2-amine Dihydrochloride]",,,4.37
"Cl.Cl.Nc1ccc2ccc(CCNCCc3ccc(F)cc3)cc2n1 [14 (Ex. 16), 7-[(4-Fluorophenethylamino)ethyl]quinolin-2-amine Dihydrochloride]",,280,
"Cl.Cl.Nc1ccc2ccc(CCNCCc3ccc(Cl)cc3)cc2n1 [16 (Ex. 18), 7-[(4-Chlorophenethylamino)ethyl]quinolin-2-amine Dihydrochloride]",47,91,
